# From US20230331707A1, “PROGRAMMED CELL NECROSIS INHIBITOR, PREPARATION METHOD THEREFOR, AND USE THEREOF” (Shanghai Institute of Organic Chemistry, Chinese Academy of …, priority 2020, published 2023)
# Like-named read-outs stand apart in the source and are kept apart here.
# What was measured:
# FADD−/− Jurkat cells = assay: Inhibition of TNF-induced programmed necrosis of FADD deficient Jurkat cells (Cell Titer-Glo viability); type: cell-based
# How it was run: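 FADD-deficient human Jurkat T leukemia cells in log phase were adjusted to 2.5×10^5/mL and plated at 40 μl per well in 384-well plates. Compounds were added, with SM164 (50 nM) where used, for a 1 h pretreatment at 37° C. TNFα (50 ng/mL) was then added, and cells were incubated 14 h at 37° C, 5% CO2. Viability was read as ATP luminescence with Cell Titer-Glo after 30 min at room temperature, with unstimulated DMSO wells set as 100%. EC50 values were calculated in Prism Graphpad.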
# RIPK1(1-330) protein = target: T1, RIPK1(1-330) protein (Homo sapiens, UniProt Q13546); assay: RIPK1(1-330) kinase activity (ADP-Glo); type: biochemical; details: read-out: effective semi-inhibitory concentration on RIPK1 kinase
# T1 construct: testing the effect of compound QY-10-40 on the kinase activity of RIPK1(1-330) protein; made in house
# T1 sequence (Q13546 1-330): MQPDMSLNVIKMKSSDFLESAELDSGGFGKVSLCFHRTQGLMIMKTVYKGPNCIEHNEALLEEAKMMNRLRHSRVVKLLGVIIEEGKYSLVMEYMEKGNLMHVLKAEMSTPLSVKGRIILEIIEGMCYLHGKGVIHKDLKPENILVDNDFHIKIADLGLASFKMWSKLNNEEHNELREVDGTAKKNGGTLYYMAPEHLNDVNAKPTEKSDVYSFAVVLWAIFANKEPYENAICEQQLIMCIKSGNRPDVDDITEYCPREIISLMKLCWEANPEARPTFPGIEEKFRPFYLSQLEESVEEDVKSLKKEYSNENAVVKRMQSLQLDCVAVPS
# Description: Methods: RIPK1 (1-330) protein with a final concentration of 2 μM and ATP (IX kinase buffer) with a corresponding concentration, final concentration of 5 μL, were added to the 384-well plate, respectively. Each group at least set up triplicate wells and reacted for 2 h at 37° C. 5 μL ADP-Glo reagent was added, which was used to stop kinase reaction and remove residual ATP in reaction system. The plates was placed at room temperature for 40 min. 10 μL kinase detection reagent was added, which was used to convert ADP into ATP and introduce luciferase and luciferin for ATP detection into the system. The reaction was carried out at room temperature for 1 h. 7500 Fast Real-Time PCR System was used to detect luminescence. The IC50 of the compounds inhibiting the kinase reaction was calculated using Prism Graphpad statistical software.
# [1] = system: phosphorylation of RIPK1 and phosphorylation of downstream protein MLKL; assay: Programmed necrosis pathway signals by western blot in FADD-deficient Jurkat cells; type: cell-based, human; details: 1.6 nM
# Description: (§1) In order to verify whether the compounds of the present invention can inhibit programmed cell necrosis by inhibiting the activity of RIPK1, and to detect the changes in the signal of the programmed necrosis pathway. FADD-deficient Jurkat or L929 cells treated with the compound of the present invention were used, and TNFα was added to induce programmed necrosis. Then the cells were collected and phosphorylation of RIPK1 and oligomerization of MLKL were detected using western blot.
# (§2) Methods: FADD-deficient Jurkat cells or L929 cells were cultured in vitro. After growing to the logarithmic growth phase, the cells were collected, centrifuged at 1000 rpm for 5 min, the supernatant was discarded, and the cell concentration was adjusted to 1×10^6/mL. In the 12-well cell culture plate, each well was added with 1 ml of cells, and 0.2 μL of DMSO solution with a concentration of 50 mM drug or pure DMSO control, and pretreated for 1 h. 0.5 μL of TNF α (PBS solution) with a concentration of 100 μg/ml was added to each stimulated group. […] The BCA protein quantification kit was used to detect the protein content of each group, and PIPA lysis buffer was used to adjust the protein amount to make the final volume being 100 μL. […] The resulting sample was incubated with ECL luminescent solution and the luminescent signal was detected.
# [2] = system: phosphorylation of RIPK1 and phosphorylation of downstream protein MLKL; assay: Programmed necrosis pathway signals by western blot in L929 cells; type: cell-based, mouse
# Description: as §1, §2
compound,measurement,setting,value
Cn1ncc(C(=O)NCc2ccc(-n3cnc4c(N)ncnc43)cc2)c1Cc1ccccc1 [QY-10-40],concentration that essentially completely inhibits TNFα-induced programmed necrosis,FADD−/− Jurkat cells; FADD-deficient Jurkat cells,above 1 nM
same,EC50,"FADD−/− Jurkat cells; FADD−/− Jurkat cells, stimulated with TNFα + SM164, read-out: EC50 (μM) FADD−/− Jurkat cells (human) TNFα + SM164",0.06 nM
same,EC50,"FADD−/− Jurkat cells; Homo sapiens, Jurkat, read-out: EC50 (μM) FADD−/− Jurkat cells (human) TNFα",0.001 nM
same,activity of inhibition of programmed necrosis compared with GSK2982772,"FADD−/− Jurkat cells; human FADD-deficient Jurkat cells, TNFα alone or in combination with SM164",stronger activity
same,IC50,RIPK1(1-330) protein,219 nM
same,inhibition of phosphorylation of RIPK1 and of downstream protein MLKL,[1],effectively inhibit
same,inhibitory effect on pathway signals compared with GSK2982772 and Nec-1s,[2],far superior to the other two
